From US20200316077A1, “PHARMACEUTICAL COMPOSITION FOR THE TREATMENT OF CANCER” (IMPETIS BIOSCIENCES LTD., priority 2017, published 2020) come the findings set out here.

The subject of test [1] is 4T1 cells (breast cancer). Kind of test: 4T1 Breast Cancer Model: tumor suppression in mice. The format is in vivo. To be noted: BALB/c mice, 3 mg/kg, PO, BID, Day 28, n = 12. As to the method:
(§1) Tumor Suppression Activity of Adenosine A2A (Compound 31) and A2B (Compound 169) Antagonists in Xenograft Models of Cancer
(§2) General Protocol: 6-8 weeks old BALB/c mice were acclimated and on Day 1 of the study, the mice were injected with 50 μL of medium containing 5×10^4 4T1 cells (breast cancer) or 5×10^5 CT26 cells (colon cancer). On day 8 or 9, the mice were segregated into different groups and treated orally with either vehicle (1% Tween-80+0.5% Carboxymethylcellulose in water) or test compound [(Compound 32 5-Amino-3-[2-[4-[2-fluoro-4-(2-methoxyethoxy)phenyl]piperazin-1-yl]ethyl]-8-(2-furyl)-1-methyl-[1,2,4]triazolo[5,1-f]purin-2-one (32) & Phosphoric acid mono-{2-cyano-6-oxo-1-propyl-8-[1-(3-trifluoromethyl-benzyl)-1H-pyrazol-4-yl]-1,6-dihydro-purin-7-ylmethyl} ester (335)] in vehicle. The treatment was BID for 22 days (colon cancer) or 28 days (breast cancer). At the end of the study, the tumor volume was measured as (length X breadth)/2. Data were presented as % reduction compared to the tumor volume in vehicle treated animals.

Test [2] has as its system CT26 cells (colon cancer). Kind of test: CT26 Colon Cancer Model: tumor suppression in mice. As to conditions: BALB/c mice, 3 mg/kg, PO, BID, Day 22, n = 12. The format is in vivo. The procedure:
as §1, §2

With `CCCn1c(C#N)nc2nc(-c3cnn(Cc4cccc(C(F)(F)F)c4)c3)n(COP(=O)(O)O)c2c1=O` [Compound 335, Phosphoric acid mono-{2-cyano-6-oxo-1-propyl-8-[1-(3-trifluoromethyl-benzyl)-1H-pyrazol-4-yl]-1,6-dihydro-purin-7-ylmethyl} ester], in test [1], the “% decrease in Tumor growth vs. vehicle On Day 28” value is given as 46.40%. In test [2], the “% decrease in Tumor growth vs. vehicle On Day 22” value is recorded as 23.90%.
